Patent publication US20240327334A1, “Covalent Inhibitors As Antiviral Agents” (Enanta Pharmaceuticals, Inc., priority 2022, published 2024)
pEC50, pIC50: −log10 of the molar value.

Test system: SARS-CoV-2 replicon
Assay: microbe, parasite or virus in culture
Type: cell-based
Conditions: Severe acute respiratory syndrome coronavirus 2, Huh-7

| SMILES | pEC50 |
| --- | --- |
| N#CN1CCC(F)(C(=O)NCc2ccccc2C(=O)NC2(c3cc(Br)cc4ccccc34)CC2)C1 (stereo not shown) [Example 329] | > 6.00 |
| CC(C)(O)c1ncc(-c2cc(C3(NC(=O)c4ccccc4CNC(=O)C(=O)NCC#N)CC3)c3ccccc3c2)s1 [Example 287] | > 6.00 |
| N#CCNC(=O)C(=O)NCc1ccccc1C(=O)NC1(c2cc(-c3cccs3)cc(-c3cccs3)c2)CC1 [Example 452] | 5.00 to 6.00 |
| N#CCNC(=O)C(=O)NCc1ccc(C#N)cc1C(=O)NC1(c2ccc(F)c3ccccc23)CC1 [Example 55] | 5.00 to 6.00 |
| COc1cccnc1C#C[C@H](C)NC(=O)C(=O)NCc1ccccc1C(=O)NC1(c2ccc3nn(C)cc3c2)CC1 [Example 273] | > 6.00 |
| O=C(NCC#Cc1ncc(F)s1)C(=O)NCc1ccccc1C(=O)NC1(c2cc(F)cc(-c3cnn(C4CC4)c3)c2)CC1 [Example 249] | > 6.00 |
| CN1C[C@H](F)C[C@H]1COc1ccc(CNC(=O)C(=O)NCC#N)c(C(=O)NC2(c3cccc4ccccc34)CC2)c1 [Example 318] | > 6.00 |
| O=C(NC/C=C/S(=O)(=O)c1ccccc1)C(=O)NCc1ccccc1C(=O)NC1(c2ccc3ccccc3c2)CC1 [Example 173] | > 6.00 |
| N#CN1CC[C@H](C(=O)NCc2ccccc2C(=O)NC2(c3cc(Br)cc4ccccc34)CC2)C1 [Example 417] | > 6.00 |
| N#CN1CC[C@@H](C(=O)NCc2ccccc2C(=O)NC2(c3cc(Br)cc4ccccc34)CC2)C1 [Example 416] | > 6.00 |
| COC(=O)/C=C/CNC(=O)C(=O)NCc1c(F)cc(F)cc1C(=O)N[C@H](C)c1cccc2ccccc12 [Example 360] | 5.00 to 6.00 |

Target: SARS-CoV-2 Papain-like (PLpro) protease (Severe acute respiratory syndrome coronavirus 2, UniProt P0DTD1)
Assay: SARS-CoV-2 Papain-like (PLpro) protease biochemical enzyme inhibition assay (ubiquitin-fluorophore substrate, Ub-R110)
Conditions: not given

| SMILES | pIC50 |
| --- | --- |
| CCOP(=O)(/C=C/CCNC(=O)C(=O)NCc1ccccc1C(=O)N[C@H](C)c1cccc2ccccc12)OCC [Example 12] | < 5.00 |

Same assay, conditions: Ub-R110 substrate; run in duplicate; read-out: PLpro IC50

| SMILES | pIC50 |
| --- | --- |
| N#CN1CCC(F)(C(=O)NCc2ccccc2C(=O)NC2(c3cc(Br)cc4ccccc34)CC2)C1 (stereo not shown) [Example 329] | > 7.00 |
| CC(C)(O)c1ncc(-c2cc(C3(NC(=O)c4ccccc4CNC(=O)C(=O)NCC#N)CC3)c3ccccc3c2)s1 [Example 287] | > 7.00 |
| N#CCNC(=O)C(=O)NCc1ccccc1C(=O)NC1(c2cc(-c3cccs3)cc(-c3cccs3)c2)CC1 [Example 452] | > 7.00 |
| N#CCNC(=O)C(=O)NCc1ccc(C#N)cc1C(=O)NC1(c2ccc(F)c3ccccc23)CC1 [Example 55] | > 7.00 |
| COc1cccnc1C#C[C@H](C)NC(=O)C(=O)NCc1ccccc1C(=O)NC1(c2ccc3nn(C)cc3c2)CC1 [Example 273] | > 7.00 |
| O=C(NCC#Cc1ncc(F)s1)C(=O)NCc1ccccc1C(=O)NC1(c2cc(F)cc(-c3cnn(C4CC4)c3)c2)CC1 [Example 249] | > 7.00 |
| CN1C[C@H](F)C[C@H]1COc1ccc(CNC(=O)C(=O)NCC#N)c(C(=O)NC2(c3cccc4ccccc34)CC2)c1 [Example 318] | > 7.00 |
| O=C(NC/C=C/S(=O)(=O)c1ccccc1)C(=O)NCc1ccccc1C(=O)NC1(c2ccc3ccccc3c2)CC1 [Example 173] | > 7.00 |
| COC(=O)/C=C/CNC(=O)C(=O)Nc1ccccc1C(=O)N[C@H](C)c1cccc2ccccc12 [Example 11] | < 5.00 |
| N#CCNC(=O)C(=O)NCc1ccccc1C(=O)NC1(c2cc(Cl)cc(-c3cnc(C(F)(F)F)nc3)c2)CC1 [Example 72] | 6.00 to 7.00 |
| COc1cc(C2(NC(=O)c3ccccc3CNC(=O)C(=O)NC/C=C/c3cnccn3)CC2)cc2cn(C3CC3)nc12 [Example 579] | 6.00 to 7.00 |
| C=CC(=O)NNC(=O)C(=O)Nc1ccccc1C(=O)N[C@H](C)c1cccc2ccccc12 [Example 27] | < 5.00 |
| COc1ccc(C#C[C@H](C)NC(=O)C(=O)NCc2ccccc2C(=O)NC2(c3ccc4nn(C)cc4c3)CC2)c(C#N)c1 [Example 112] | > 7.00 |
| C#CCNC(=O)C(=O)NCc1ccccc1C(=O)NC1(c2cc(-c3cn(-c4ccc(F)cc4F)nn3)cc(C(F)(F)F)c2)CC1 [Example 57] | 5.00 to 6.00 |
| O=C(C#CCNC(=O)C(=O)NCc1ccccc1C(=O)NC1(c2cc(-c3cccs3)cc(C(F)(F)F)c2)CC1)NC1CC1 [Example 522] | 6.00 to 7.00 |
| COC(=O)/C=C/CNC(=O)C(=O)NCc1ccccc1C(=O)N[C@H](C)c1cc(-c2ccccc2)cc(C(F)(F)F)c1 [Example 35] | > 7.00 |
| C[C@@H](NC(=O)c1ccccc1CNC(=O)C(=O)NC1(C#N)CC1)c1cccc2ccccc12 [Example 15] | < 5.00 |
| C[C@@H](NC(=O)c1ccccc1CNC(=O)C(=O)NC/C=C/C(=O)N1CCCNC(=O)C1)c1cccc2ccccc12 [Example 549] | 6.00 to 7.00 |
| N#CCNC(=O)C(=O)NCc1ccccc1C(=O)NC1(c2cc(Br)cc3ccccc23)CC1 [Example 44] | > 7.00 |
| CC(C)(C)OC(=O)N1CCC[C@@H]1CNC(=O)C(=O)NCc1ccccc1C(=O)NC1(c2cccc3ccccc23)CC1 [Example 506] | < 5.00 |
| NC(=O)N1CC[C@@H]1CNC(=O)C(=O)NCc1ccccc1C(=O)NC1(c2cccc3ccccc23)CC1 [Example 499] | 5.00 to 6.00 |
| O=C(NCc1ccccc1C(=O)NC1(c2ccc(F)c3ccccc23)CC1)C(=O)N[C@@H]1CNC1=O [Example 123] | < 5.00 |

| SMILES | pIC50 |
| --- | --- |
| NNC(=O)/C=C/CNC(=O)C(=O)NCc1ccccc1C(=O)NC1(c2cccc3ccccc23)CC1 [Example 553] | 6.00 to 7.00 |
| C[C@@H](C#Cc1ccc(F)cc1C#N)NC(=O)C(=O)NCc1ccccc1C(=O)NC1(c2ccc3nn(C)cc3c2)CC1 [Example 101] | 6.00 to 7.00 |
| C#CCNC(=O)C(=O)NCc1ccccc1C(=O)NC1(c2cccc3ccccc23)CC1 [Example 32] | > 7.00 |
| COC(=O)/C=C/CNC(=O)C(=O)NCc1ncoc1C(=O)N[C@H](C)c1cccc2ccccc12 [Example 364] | < 5.00 |
| N#CN1CC(CCNC(=O)C(=O)NCc2ccccc2C(=O)NC2(c3cccc4ccccc34)CC2)C1 [Example 433] | 5.00 to 6.00 |
| C[C@@H](NC(=O)c1ccccc1CNC(=O)C(=O)NCC#N)c1cc(-c2ccsc2)cc(C(F)(F)F)c1 [Example 466] | < 5.00 |
| N#CCNC(=O)C(=O)NCc1ccccc1C(=O)NC1(c2cc(-c3cnn(C4CC4)c3)nc3[nH]ccc23)CC1 [Example 414] | 6.00 to 7.00 |
| N#CCNC(=O)C(=O)NCc1ccccc1C(=O)NC1(c2cc(-c3cn(-c4ccc(F)cc4F)nn3)cc(C(F)(F)F)c2)CC1 [Example 58] | < 5.00 |
| N#CCNC(=O)C(=O)NCc1ccccc1C(=O)NC1(c2cccn3nccc23)CC1 [Example 405] | 6.00 to 7.00 |
| O=C(NC/C=C1\CCOC1=O)C(=O)NCc1ccccc1C(=O)NC1(c2ccc3ccccc3c2)CC1 [Example 162] | 6.00 to 7.00 |
| COC(=O)/C=C/CCNC(=O)C(=O)NCC1C[C@H]1C(=O)N[C@H](C)c1cccc2ccccc12 (stereo partly shown) [Example 17] | < 5.00 |
| N#CN1CC(CNC(=O)C(=O)NCc2ccccc2C(=O)NC2(c3ccc4ccccc4c3)CC2)C1 [Example 430] | 6.00 to 7.00 |
| N#CCNC(=O)C(=O)NCc1ccccc1C(=O)NC1(c2cc(N3CCOC3=O)cc3ccccc23)CC1 [Example 317] | > 7.00 |
| N#CCNC(=O)C(=O)N1Cc2cccc(C(=O)NC3(c4cc(Br)cc5ccccc45)CC3)c2C1 [Example 315] | 5.00 to 6.00 |
| CC(C)[C@@H](C#Cc1ccccn1)NC(=O)C(=O)NCc1ccccc1C(=O)NC1(c2ccc3ccccc3c2)CC1 [Example 207] | < 5.00 |
| C[C@@H](C#Cc1ccc(C#N)cc1C#N)NC(=O)C(=O)NCc1ccccc1C(=O)NC1(c2ccc3nn(C)cc3c2)CC1 [Example 110] | 5.00 to 6.00 |
| COc1cc(C2(NC(=O)c3ccccc3CNC(=O)C(=O)NCC(O)C(F)(F)F)CC2)cc2cn(C3CC3)nc12 (stereo not shown) [Example 513] | < 5.00 |
| N#CN1CCC[C@@H]1CNC(=O)C(=O)NCc1ccccc1C(=O)NC1(c2cccc3ccccc23)CC1 [Example 508] | 6.00 to 7.00 |
| N#CC1CCCN1C(=O)C(=O)NCc1ccccc1C(=O)NC1(c2cccc3ccccc23)CC1 (stereo not shown) [Example 41] | < 5.00 |
| COC(=O)/C=C/CNC(=O)C(=O)NCC1C[C@@H]1C(=O)N[C@H](C)c1cccc2ccccc12 (stereo partly shown) [Example 20] | 5.00 to 6.00 |
| C[C@@H](NC(=O)c1ccccc1CNC(=O)C(=O)NCC/C=C/P(=O)(O)O)c1cccc2ccccc12 [Example 13] | < 5.00 |
| C[C@@H](C#Cc1ncco1)NC(=O)C(=O)NCc1ccccc1C(=O)NC1(c2cc(F)cc(-c3cnn(C4CC4)c3)c2)CC1 [Example 143] | 5.00 to 6.00 |

| SMILES | pIC50 |
| --- | --- |
| CC(C)(C)OC(=O)NNC(=O)/C=C/CNC(=O)C(=O)NCc1ccccc1C(=O)NC1(c2cccc3ccccc23)CC1 [Example 548] | 6.00 to 7.00 |
| O=C(NCC#Cc1nccs1)C(=O)NCc1ccccc1C(=O)NC1(c2cc(Cl)cc(-c3nccs3)c2)CC1 [Example 488] | > 7.00 |
| NC(=O)N1CC[C@H](CNC(=O)C(=O)NCc2ccccc2C(=O)NC2(c3cccc4ccccc34)CC2)C1 [Example 503] | 5.00 to 6.00 |
| O=C(C#CCNC(=O)C(=O)NCc1ccccc1C(=O)NC1(c2ccc3ccccc3c2)CC1)Nc1ccccc1 [Example 521] | 6.00 to 7.00 |
| COC(=O)/C=C/CNC(=O)C(=O)NC(C)c1ccccc1C(=O)N[C@H](C)c1cccc2ccccc12 (stereo partly shown) [Example 52] | 5.00 to 6.00 |
| N#CCNC(=O)C(=O)NCc1ccccc1C(=O)NC1(c2cccc(Cl)c2Cl)CC1 [Example 378] | 6.00 to 7.00 |
| N#CCNC(=O)C(=O)NCc1ccccc1C(=O)NC1(c2cccc(C(F)(F)F)c2F)CC1 [Example 376] | 6.00 to 7.00 |
| Cn1ccc(C#CCNC(=O)C(=O)NCc2ccccc2C(=O)NC2(c3ccc4ccccc4c3)CC2)n1 [Example 397] | 6.00 to 7.00 |
| C[C@@H](NC(=O)c1ccccc1CNC(=O)C(=O)NCC#N)c1cc(C(F)(F)F)nc2ccccc12 [Example 325] | < 5.00 |
| CC(C)(O)Cn1cc(-c2cc(F)cc(C3(NC(=O)c4ccccc4CNC(=O)C(=O)NCC#N)CC3)c2)cn1 [Example 282] | 6.00 to 7.00 |
| C=C(CNC(=O)C(=O)NCc1ccccc1C(=O)N[C@H](C)c1cccc2ccccc12)C(=O)O [Example 42] | < 5.00 |
| Cn1cc2c(F)c(C3(NC(=O)c4ccccc4CNC(=O)C(=O)NCC#N)CC3)ccc2n1 [Example 332] | > 7.00 |
| N#Cc1ncc(C#CCNC(=O)C(=O)NCc2ccccc2C(=O)NC2(c3ccc4ccccc4c3)CC2)cn1 [Example 182] | < 5.00 |
| N#CCNC(=O)C(=O)NCc1ccccc1C(=O)NC1(c2cc(-c3cn(C4CC4)nn3)cc(C(F)(F)F)c2)CC1 [Example 60] | 6.00 to 7.00 |
| C=CCNC(=O)C(=O)NCc1ccccc1C(=O)NC1(c2ccc3ccccc3c2)CC1 [Example 497] | < 5.00 |
| COc1cc(C2(NC(=O)c3ccccc3CNC(=O)C(=O)NC[C@@H]3CCCN3)CC2)cc2cn(C3CC3)nc12 [Example 511] | 5.00 to 6.00 |
| N#C[C@@H]1CCN1C(=O)C(=O)NCc1ccccc1C(=O)NC1(c2cccc3ccccc23)CC1 [Example 119] | 5.00 to 6.00 |
| CC(C)n1nccc1C#CCNC(=O)C(=O)NCc1ccccc1C(=O)NC1(c2cc(F)cc(-c3cnn(C4CC4)c3)c2)CC1 [Example 278] | 6.00 to 7.00 |
| Cc1cccc(C)c1NC(=O)/C=C/CNC(=O)C(=O)NCc1ccccc1C(=O)NC1(c2cccc3ccccc23)CC1 [Example 562] | < 5.00 |
| CN(C#N)NC(=O)C(=O)NCc1ccccc1C(=O)NC1(c2ccc(F)c3ccccc23)CC1 [Example 124] | 5.00 to 6.00 |
